The molecules below were run against human PDE1B enzyme (Homo sapiens (Human), UniProt Q01064) (assay: IMAP TR-FRET PDE1B enzymatic assay). Conditions: negative log of half-maximal molar inhibitory concentration; 200 nM FAM-cAMP; values given as bins.
Assay type: biochemical
Procedure, shortened: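 Full-length GST-tagged human PDE1B (250 pg/well) in IMAP BSA buffer with 10 U/ml calmodulin and 2.5 mM CaCl2; compound pre-incubated 5 min at room temperature, then 200 nM (final) FAM-cAMP for 30 min. IMAP binding reagent/Tb added, 1 h; TR-FRET 520/490 ratio read. IC50 from sigmoidal dose-response fit.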
For `Cc1oc2ncnc(NC3(C)CC3)c2c1C(=O)N1CCC(c2ccc(C#N)cc2)CC1` [Example 385, 4-(1-{6-Methyl-4-[(1-methylcyclopropyl)amino]furo[2,3-d]pyrimidine-5-carbonyl}piperidin-4-yl)benzonitrile], the “PDE1b (pIC50)” value was over 8. For `COc1nc(C2CC2)nc2c1CCN(C(=O)c1c(C)oc3ncnc(NC4(C)CC4)c13)C2` [Example 812, 5-{2-Cyclopropyl-4-methoxy-5H,6H,7H,8H-pyrido[3,4-d]pyrimidine-7-carbonyl}-6-methyl-N-(1-methylcyclopropyl)furo[2,3-d]pyrimidin-4-amine], the “PDE1b (pIC50)” value was over 8. With `COc1cccc(C2CCN(C(=O)c3c(C)oc4ncnc(NC5(C)CC5)c34)C2)c1` (stereo not shown) [Example 361, 5-[3-(3-Methoxyphenyl)pyrrolidine-1-carbonyl]-6-methyl-N-(1-methylcyclopropyl)furo[2,3-d]pyrimidin-4-amine] the “PDE1b (pIC50)” value was over 8. `Cc1ccnc(C2CCN(C(=O)c3c(C)oc4ncnc(NC5(C)CC5)c34)CC2)n1` [Example 390, 6-Methyl-N-(1-methylcyclopropyl)-5-[4-(4-methylpyrimidin-2-yl)piperidine-1-carbonyl]furo[2,3-d]pyrimidin-4-amine] was tested, and the “PDE1b (pIC50)” value was over 8. `Cc1oc2ncnc(NC3(C)CC3)c2c1C(=O)N1CCc2c(O)cccc2C1` [Example 329, 2-{6-Methyl-4-[(1-methylcyclopropyl)amino]furo[2,3-d]pyrimidine-5-carbonyl}-1,2,3,4-tetrahydroisoquinolin-5-ol] was tested, and the “PDE1b (pIC50)” value was over 8. With `Cc1oc2ncnc(NC3(C)CC3)c2c1C(=O)N1CCC(c2cc(C(F)(F)F)ccn2)C1` (stereo not shown) [Example 802, 6-Methyl-N-(1-methylcyclopropyl)-5-f{3-[4-(trifluoromethyl)pyridin-2-yl]pyrrolidine-1-carbonyl}furo[2,3-d]pyrimidin-4-amine] the “PDE1b (pIC50)” value was over 8.

Same assay, conditions: negative log of half-maximal molar inhibitory concentration; 200 nM FAM-cAMP; values given as bins; read-out: PDE1b (pIC50) (converted)
`Cc1oc2ncnc(NC3(C)CC3)c2c1C(=O)NCc1noc(C(F)(F)F)n1` [Example 457, 6-Methyl-4-[(1-methylcyclopropyl)amino]-N-{[5-(trifluoromethyl)-1,2,4-oxadiazol-3-yl]methyl}furo[2,3-d]pyrimidine-5-carboxamide] was tested, and the IC50 was 0.01 to 0.1 µM. `Cc1oc2ncnc(NC3(C)CC3)c2c1C(=O)N(C)Cc1cc2cc(F)ccc2[nH]1` [Example 569, N-[(5-Fluoro-1H-indol-2-yl)methyl]-N,6-dimethyl-4-[(1-methylcyclopropyl)amino]furo[2,3-d]pyrimidine-5-carboxamide] was tested, and the IC50 was 0.01 to 0.1 µM. `Cc1oc2ncnc(NC3(C)CC3)c2c1C(=O)N1CCc2cc(C#N)ccc2C1` [Example 58, 2-{6-Methyl-4-[(1-methylcyclopropyl)amino]furo[2,3-d]pyrimidine-5-carbonyl}-1,2,3,4-tetrahydroisoquinoline-6-carbonitrile] was tested, and the IC50 was 0.01 to 0.1 µM. For `COc1ccccc1OCCN(C)C(=O)c1c(C)oc2ncnc(NC3(C)CC3)c12` [Example 558, N-[2-(2-Methoxyphenoxy)ethyl]-N,6-dimethyl-4-[(1-methylcyclopropyl)amino]furo[2,3-d]pyrimidine-5-carboxamide], the IC50 was 0.01 to 0.1 µM. Molecule `Cc1oc2ncnc(NC3(C)CC3)c2c1C(=O)NCc1ccc(OC(F)(F)F)cc1F` [Example 723, N-{[2-Fluoro-4-(trifluoromethoxy)phenyl]methyl}-6-methyl-4-[(1-methylcyclopropyl)amino]furo[2,3-d]pyrimidine-5-carboxamide] has an IC50 of 0.01 to 0.1 µM. For `Cc1oc2ncnc(NC3(C)CC3)c2c1C(=O)NC12CC3CC(CC(C3)C1)C2` [Example 270, N-(Adamantan-1-yl)-6-methyl-4-[(1-methylcyclopropyl)amino]furo[2,3-d]pyrimidine-5-carboxamide], the IC50 was under 0.01 µM. In the case of `Cc1oc2ncnc(NC3(C)CC3)c2c1C(=O)NCCOC(C)C` [Example 176, 6-Methyl-4-[(1-methylcyclopropyl)amino]-N-[2-(propan-2-yloxy)ethyl]furo[2,3-d]pyrimidine-5-carboxamide], the IC50 is reported as 0.01 to 0.1 µM. `Cc1oc2ncnc(NC3(C)CC3)c2c1C(=O)NC(C)(C)c1ccccn1` [Example 78, 6-Methyl-4-[(1-methylcyclopropyl)amino]-N-[2-(pyridin-2-yl)propan-2-yl]furo[2,3-d]pyrimidine-5-carboxamide] was tested, and the IC50 was 0.01 to 0.1 µM. `COc1cc(CNC(=O)c2c(C)oc3ncnc(NC4(C)CC4)c23)cc(OC)c1` [Example 495, N-[(3,5-Dimethoxyphenyl)methyl]-6-methyl-4-[(1-methylcyclopropyl)amino]furo[2,3-d]pyrimidine-5-carboxamide] gave an IC50 of 0.01 to 0.1 µM. In the case of `C#CC(C)(C)NC(=O)c1c(C)oc2ncnc(NC3(C)CC3)c12` [Example 520, 6-Methyl-N-(2-methylbut-3-yn-2-yl)-4-[(1-methylcyclopropyl)amino]furo[2,3-d]pyrimidine-5-carboxamide], the IC50 is reported as 0.01 to 0.1 µM. Work on `Cc1coc(CNC(=O)c2c(C)oc3ncnc(NC4(C)CC4)c23)n1` [Example 760, 6-Methyl-N-[(4-methyl-1,3-oxazol-2-yl)methyl]-4-[(1-methylcyclopropyl)amino]furo[2,3-d]pyrimidin-5-carboxamide] yielded an IC50 of 0.01 to 0.1 µM. In the case of `Cc1oc2ncnc(NC3(C)CC3)c2c1C(=O)N1CCc2c(O)ccnc2C1` [Example 19, 7-{6-methyl-4-[(1-methylcyclopropyl)amino]furo[2,3-d]pyrimidine-5-carbonyl}-5,6,7,8-tetrahydro-1,7-naphthyridin-4-ol], the IC50 is reported as 0.1 to 1 µM. `Cc1oc2ncnc(NC3(C)CC3)c2c1C(=O)Nc1cnn(-c2ncccc2F)c1` [Example 447, N-[1-(3-Fluoropyridin-2-yl)-1H-pyrazol-4-yl]-6-methyl-4-[(1-methylcyclopropyl)amino]furo[2,3-d]pyrimidine-5-carboxamide] was tested, and the IC50 was 0.01 to 0.1 µM. Work on `Cc1oc2ncnc(NC3(C)CC3)c2c1C(=O)NCc1cncs1` [Example 74, 6-Methyl-4-[(1-methylcyclopropyl)amino]-N-(1,3-thiazol-5-ylmethyl)furo[2,3-d]pyrimidine-5-carboxamide] yielded an IC50 of 0.01 to 0.1 µM. `Cc1oc2ncnc(NC3(C)CC3)c2c1C(=O)N1CCN(c2ccc(S(C)(=O)=O)cc2F)CC1C` (stereo not shown) [Example 522, 5-[4-(2-Fluoro-4-methanesulfonylphenyl)-2-methylpiperazine-1-carbonyl]-6-methyl-N-(1-methylcyclopropyl)furo[2,3-d]pyrimidin-4-amine] was tested, and the IC50 was 0.01 to 0.1 µM. `Cc1oc2ncnc(NC3(C)CC3)c2c1C(=O)N1CC(C#N)C2(C1)C(=O)Nc1ccccc12` (stereo not shown) [Example 377, 1′-{6-Methyl-4-[(1-methylcyclopropyl)amino]furo[2,3-d]pyrimidine-5-carbonyl}-2-oxo-1,2-dihydrospiro[indole-3,3′-pyrrolidine]-4′-carbonitrile] was tested, and the IC50 was 0.01 to 0.1 µM. `Cc1oc2ncnc(NC3(C)CC3)c2c1C(=O)N1CC(c2nccs2)C1` [Example 33, 6-Methyl-N-(1-methylcyclopropyl)-5-[3-(1,3-thiazol-2-yl)azetidine-1-carbonyl]furo[2,3-d]pyrimidin-4-amine] showed an IC50 of 0.01 to 0.1 µM. Work on `Cc1oc2ncnc(NC3(C)CC3)c2c1C(=O)NCc1cnn(-c2ccc(F)cc2)c1` [Example 571, N-{[1-(4-Fluorophenyl)-1H-pyrazol-4-yl]methyl}-6-methyl-4-[(1-methylcyclopropyl)amino]furo[2,3-d]pyrimidine-5-carboxamide] yielded an IC50 of 0.01 to 0.1 µM. Molecule `Cc1cc2n(n1)CCN(C(=O)c1c(C)oc3ncnc(NC4(C)CC4)c13)C2` [Example 632, 6-Methyl-5-f{2-methyl-4H,5H,6H,7H-pyrazolo[1,5-a]pyrazine-5-carbonyl}-N-(1-methylcyclopropyl)furo[2,3-d]pyrimidin-4-amine] has an IC50 of 0.01 to 0.1 µM.

Source: patent US20250145633A1, “SUBSTITUTED FURANOPYRIMIDINE COMPOUNDS AS PDE1 INHIBITORS” (Dart NeuroScience, LLC, priority 2017, published 2025)
